Source: BindingDB's records for doi:10.1021/jm00079a024 (Roche Products, 1992)
pIC50: −log10 of the molar value.

molecular target: cAMP-dependent protein kinase catalytic subunit alpha (Bos taurus, UniProt P00517); experiment: PKA assay; conditions: not given

pIC50	Compound
< 4.00	Cn1cc(C2=C(c3cccc(N)c3)C(=O)NC2=O)c2ccccc21 [3-(3-aminophenyl)-4-(1-methyl-1H-indol-3-yl)-2,5-dihydro-1H-pyrrole-2,5-dione]
< 4.00	Cn1cc(C2=C(c3cccc(Cl)c3)C(=O)NC2=O)c2ccccc21 [3-(3-chlorophenyl)-4-(1-methyl-1H-indol-3-yl)-2,5-dihydro-1H-pyrrole-2,5-dione]
< 4.00	Cn1cc(C2=C(c3cc(Cl)cc(Cl)c3)C(=O)NC2=O)c2ccccc21 [3-(3,5-dichlorophenyl)-4-(1-methyl-1H-indol-3-yl)-2,5-dihydro-1H-pyrrole-2,5-dione]
< 4.00	Cn1cc(C2=C(c3ccccc3)C(=O)NC2=O)c2ccccc21 [3-(1-methyl-1H-indol-3-yl)-4-phenyl-2,5-dihydro-1H-pyrrole-2,5-dione]
< 4.00	Cn1cc(C2=C(c3csc4ccccc34)C(=O)NC2=O)c2ccccc21 [3-(1-benzothiophen-3-yl)-4-(1-methyl-1H-indol-3-yl)-2,5-dihydro-1H-pyrrole-2,5-dione]
< 4.00	Cc1cccc(C2=C(c3cn(C)c4ccccc34)C(=O)NC2=O)c1 [3-(1-methyl-1H-indol-3-yl)-4-(3-methylphenyl)-2,5-dihydro-1H-pyrrole-2,5-dione]
< 4.00	Cn1cc(C2=C(c3cn(C)c4cccc([N+](=O)[O-])c34)C(=O)NC2=O)c2ccccc21 [3-(1-methyl-1H-indol-3-yl)-4-(1-methyl-4-nitro-1H-indol-3-yl)-2,5-dihydro-1H-pyrrole-2,5-dione]

same assay, conditions: pH 8.5; 37 °C

pIC50	Compound
< 4.00	Cn1cc(C2=C(c3cn(Cc4ccccc4)c4ccccc34)C(=O)NC2=O)c2ccccc21 [3-(1-benzyl-1H-indol-3-yl)-4-(1-methyl-1H-indol-3-yl)-2,5-dihydro-1H-pyrrole-2,5-dione]

molecular target: Protein kinase C beta type (Rattus norvegicus, UniProt P68403); experiment: PKC assay; conditions: not given
Sequence (P68403 whole entry): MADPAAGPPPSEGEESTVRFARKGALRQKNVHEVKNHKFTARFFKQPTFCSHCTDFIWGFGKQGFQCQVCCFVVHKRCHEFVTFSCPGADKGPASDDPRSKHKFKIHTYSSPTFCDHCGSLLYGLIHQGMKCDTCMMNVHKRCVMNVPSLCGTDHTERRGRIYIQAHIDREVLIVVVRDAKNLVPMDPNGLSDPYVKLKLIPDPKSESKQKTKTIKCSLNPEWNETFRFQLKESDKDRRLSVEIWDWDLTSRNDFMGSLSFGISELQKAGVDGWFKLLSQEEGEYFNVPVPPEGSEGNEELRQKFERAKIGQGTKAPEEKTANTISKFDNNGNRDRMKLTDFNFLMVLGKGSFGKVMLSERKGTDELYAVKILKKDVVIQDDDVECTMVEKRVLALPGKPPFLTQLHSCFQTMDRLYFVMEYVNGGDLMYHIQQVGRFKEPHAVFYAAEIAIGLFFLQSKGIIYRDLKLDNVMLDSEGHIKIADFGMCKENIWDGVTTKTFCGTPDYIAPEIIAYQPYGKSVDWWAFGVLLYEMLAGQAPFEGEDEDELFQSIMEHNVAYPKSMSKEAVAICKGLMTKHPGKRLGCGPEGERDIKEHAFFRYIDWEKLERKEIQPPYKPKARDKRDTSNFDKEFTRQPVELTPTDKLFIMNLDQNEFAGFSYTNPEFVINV

Compound	pIC50
Cn1cc(C2=C(c3cn(C)c4ccc(C(=O)O)cc34)C(=O)NC2=O)c2ccccc21 [1-methyl-3-[4-(1-methyl-1H-indol-3-yl)-2,5-dioxo-2,5-dihydro-1H-pyrrol-3-yl]-1H-indole-5-carboxylic acid]	< 4.30
Cn1cc(C2=C(c3cccc(Oc4ccccc4)c3)C(=O)NC2=O)c2ccccc21 [3-(1-methyl-1H-indol-3-yl)-4-(3-phenoxyphenyl)-2,5-dihydro-1H-pyrrole-2,5-dione]	< 4.00

Second part, the molecule after the results:

pIC50	Compound
< 4.00	Cn1cc(C2=C(c3ccc(S(C)(=O)=O)cc3)C(=O)NC2=O)c2ccccc21 [3-(4-methanesulfonylphenyl)-4-(1-methyl-1H-indol-3-yl)-2,5-dihydro-1H-pyrrole-2,5-dione]
< 4.30	CSc1ccc(C2=C(c3cn(C)c4ccccc34)C(=O)NC2=O)cc1 [3-(1-methyl-1H-indol-3-yl)-4-[4-(methylsulfanyl)phenyl]-2,5-dihydro-1H-pyrrole-2,5-dione]
< 4.00	Cn1cc(C2=C(c3ccc(Cl)cc3)C(=O)NC2=O)c2ccccc21 [3-(4-chlorophenyl)-4-(1-methyl-1H-indol-3-yl)-2,5-dihydro-1H-pyrrole-2,5-dione]

same assay, conditions: pH 7.5; 30 °C

pIC50	Compound
< 4.00	O=C1NC(=O)[C@@H](c2c[nH]c3ccccc23)[C@H]1c1c[nH]c2ccccc12 [(3R,4S)-3,4-bis(1H-indol-3-yl)pyrrolidine-2,5-dione]
< 4.00	O=C1NC(=O)[C@@H](c2c[nH]c3ccccc23)[C@@H]1c1c[nH]c2ccccc12 [(3R,4R)-3,4-bis(1H-indol-3-yl)pyrrolidine-2,5-dione]
< 4.00	CN1C(=O)C(c2c[nH]c3ccccc23)=C(c2c[nH]c3ccccc23)C1=O
< 4.00	O=C1OC(=O)C(c2c[nH]c3ccccc23)=C1c1c[nH]c2ccccc12 [3,4-bis(1H-indol-3-yl)-2,5-dihydrofuran-2,5-dione]
< 4.00	Cn1cc(C2=C(c3cc4ccccc4n3C)C(=O)NC2=O)c2ccccc21 [3-(1-methyl-1H-indol-2-yl)-4-(1-methyl-1H-indol-3-yl)-2,5-dihydro-1H-pyrrole-2,5-dione]
